Measurements taken from patent US20060122181A1, “Heteroaromatic pentacyclic compound and medicinal use thereof” (Japan Tobacco Inc., priority 2003, published 2006).

Tests used:
[1] = target: T1, Recombinant human protein tyrosine phosphatase 1B (Homo sapiens, UniProt P18031); test: Protein tyrosine phosphatase 1B inhibitory activity (malachite green, phosphorylated insulin receptor peptide substrate); type: biochemical; conditions: recombinant human PTP1B, 60 min room temperature, absorbance 650 nm
T1 construct: purchased UBI
T1 sequence (P18031 1-435): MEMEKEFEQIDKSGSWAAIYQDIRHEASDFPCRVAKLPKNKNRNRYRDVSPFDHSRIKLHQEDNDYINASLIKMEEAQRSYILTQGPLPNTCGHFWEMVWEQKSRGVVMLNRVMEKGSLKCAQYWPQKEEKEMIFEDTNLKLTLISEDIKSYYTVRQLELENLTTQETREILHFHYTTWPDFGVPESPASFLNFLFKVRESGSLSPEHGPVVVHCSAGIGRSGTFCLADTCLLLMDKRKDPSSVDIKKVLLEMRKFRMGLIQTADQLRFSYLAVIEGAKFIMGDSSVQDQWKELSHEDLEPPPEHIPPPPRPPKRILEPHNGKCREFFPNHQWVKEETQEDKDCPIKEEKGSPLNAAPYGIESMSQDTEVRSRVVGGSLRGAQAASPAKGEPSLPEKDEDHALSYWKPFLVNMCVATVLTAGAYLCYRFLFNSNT
Procedure: Preparation of Assay Buffer:
A 50 mM Tris-HCl buffer (pH 7.5), 50 mM NaCl and 3 mM dithiothreitol (DTT) were prepared.
[…] 0.1, 0.3, 1, 3 and 10 μM of the test compound were prepared and diluted with the above-mentioned assay buffer to the final dimethyl sulfoxide (DMSO) concentration of not more than 1%. As the control, the assay buffer was used.
Preparation of Substrate:
Recombinant human protein tyrosine phosphatase 1B (manufactured by UBI) was diluted with the above-mentioned assay buffer (1.2 ng/25 μl).
The sample (10 μl) prepared as mentioned above and a substrate (25 μl) were successively added to a 96 well plate, and the enzyme (25 μl) prepared as mentioned above was added and mixed. The mixture was incubated at room temperature for 60 min and a malachite green (120 μl, Biomol), which is a color reagent, was added. The mixture was further incubated at room temperature for 20 min to allow for color development. An absorbance at 650 nm was measured on a plate reader based on which the protein tyrosine phosphatase 1B inhibitory activity of the test compound was evaluated.

Row | Structure (SMILES) | IC50 [1] [µM] | melting point
1 | CCCC(CCC)c1ccc(OCc2ccc(-c3csc(CN(CC(=O)O)Cc4nc5ccccc5n4C)c3)cc2)cc1.Cl [Example 4-54] | 0.14 | 165.7 to 166.8 °C
2 | CCCC(CCC)c1ccc(OCc2ccc(-c3csc(CN(CC(=O)O)Cc4nc5ccccc5n4C)c3)cc2)cc1.O=S(=O)(O)O [Example 4-55] | 0.17 | 137.5 to 141.5 °C
3 | CCCC(CCC)c1ccc(OCc2ccc(-c3csc(COc4cc(C(=O)O)ccc4NC(=O)C(C)C)c3)cc2)cc1 [Example 4-57] | 0.17 | 153.7 to 154.9 °C
4 | CCCC(CCC)c1ccc(OCc2ccc(-c3csc(COc4cc(C(=O)O)ccc4N)c3)cc2)cc1 [Example 4-61] | 0.25 | 156.5 to 165.5 °C
5 | Cl.O=C(O)CN(Cc1ccccc1)Cc1ccc(-c2cn(Cc3ccc(C4CCCCC4)cc3)c3ccccc23)s1 [Example 4-63] | 0.42 | 161 to 164.3 °C
6 | CCCC(CCC)c1ccc(OCc2ccc(-c3csc(CN(CC(=O)O)S(=O)(=O)N(C)c4ccccc4)c3)cc2)cc1 [Example 4-64] | 0.24 | 139 to 140.2 °C
7 | CCCC(CCC)c1ccc(OCc2ccc(-c3csc(CN(CC(=O)O)C(=O)COc4ccc(C(C)C)cc4)c3)cc2)cc1 [Example 4-69] | 0.15 | 146 to 152 °C
8 | CCCC(CCC)c1ccc(OCc2ccc(-c3csc(CN(CC(=O)O)C(=O)c4ccc(C(C)C)cc4)c3)cc2)cc1 [Example 4-70] | 0.17 | 109 to 111 °C
9 | CCCC(CCC)c1ccc(OCc2cccc(-c3csc(CN4CCc5ccc(C(=O)O)cc5C4)c3)c2)cc1 [Example 4-73] | 0.19 | 69.4 to 78.3 °C
10 | CCCC(CCC)c1ccc(OCc2ccc(-c3ccc(CN(CC(=O)O)Cc4cc(C(F)(F)F)ccc4Cl)s3)cc2)cc1 [Example 4-75] | < 0.1 | 92.6 to 94.7 °C
11 | CCCC(CCC)c1ccc(OCc2ccc(-c3csc(CN(CC(=O)O)Cc4ccc5ccccc5n4)c3)cc2)cc1 [Example 4-87] | 0.12 | 137.3 to 138.7 °C
12 | CCCC(CCC)c1ccc(OCc2ccc(-c3csc(CN(CC(=O)O)Cc4nc5ccccc5s4)c3)cc2)cc1 [Example 4-88] | < 0.1 | 150.9 to 152.8 °C
13 | CCCC(CCC)c1ccc(OCc2ccc(-c3csc(CN(CC(=O)O)Cc4nccn4Cc4ccccc4)c3)cc2)cc1 [Example 4-89] | 0.49 | 135.2 to 136 °C
14 | CCCC(CCC)c1ccc(OCc2ccc(-c3csc(CN(CC(=O)O)Cc4ccc5[nH]ccc5n4)c3)cc2)cc1 [Example 4-90] | 0.16 | 203.4 to 205.3 °C
15 | CCCC(CCC)c1ccc(OCc2ccc(-c3csc(CN(CC(=O)O)Cc4ccc(-n5ccnc5)cc4)c3)cc2)cc1 [Example 4-91] | 0.17 | 167.5 to 169.9 °C
16 | CCCC(CCC)c1ccc(OCc2ccc(-c3csc(CN(CC(=O)O)Cc4cc5ccccc5o4)c3)cc2)cc1 [Example 4-92] | < 0.1 | 146.7 to 148.9 °C
17 | CCCC(CCC)c1ccc(OCc2ccc(-c3csc(CN(CC(=O)O)Cc4ccc(-c5cccs5)s4)c3)cc2)cc1 [Example 4-93] | < 0.1 | 203.8 to 206.2 °C
18 | CCCC(CCC)c1ccc(OCc2ccc(-c3ccc(CN(CC(=O)O)Cc4c[nH]c(-c5ccccc5)n4)s3)cc2)cc1 [Example 4-94] | 0.12 | 131.8 to 137.6 °C
19 | CCCC(CCC)c1ccc(OCc2ccc(-c3ccc(CN(CC(=O)O)Cc4c[nH]nc4-c4ccccc4)s3)cc2)cc1 [Example 4-95] | 0.28 | 145.9 to 149.3 °C
20 | CCCC(CCC)c1ccc(OCc2ccc(-c3ccc(CN(CC(=O)O)Cc4cc5ccccc5s4)s3)cc2)cc1 [Example 4-97] | 0.11 | 202.3 to 204.4 °C
21 | CCCC(CCC)c1ccc(OCc2ccc(-c3ccc(CN(CC(=O)O)Cc4cc(-c5ccccc5)cs4)s3)cc2)cc1 [Example 4-98] | < 0.1 | 181.4 to 184.5 °C
22 | CCCC(CCC)c1ccc(OCc2ccc(-c3ccc(CN(CC(=O)O)Cc4nc5ccccc5n4CC(=O)N(CC)CC)s3)cc2)cc1 [Example 4-101] | 0.1 | 194.8 to 197 °C
23 | Cc1ccc(OCc2ccc(C3CCCCC3)cc2)c(-c2csc(CN(C)[C@@H](Cc3ccccc3)C(=O)O)c2)c1 [Example 4-102] | 0.37 | 117 to 123.1 °C
24 | Cc1ccc(OCc2ccc(C3CCCCC3)cc2)c(-c2csc(CN(C(=O)C(=O)O)c3ccc4nc(C)sc4c3)c2)c1 [Example 4-104] | 0.2 | 115.9 to 121.1 °C
25 | C=CCn1c(CN(CC(=O)O)Cc2ccc(-c3ccc(COc4ccc(C(CCC)CCC)cc4)cc3)s2)nc2ccccc21 [Example 4-106] | 0.16 | 141.2 to 144.1 °C

Next, values leading:

Row | IC50 [1] [µM] | melting point | Structure (SMILES)
26 | 0.07 | 176 to 178 °C | CCCC(CCC)c1ccc(OCc2ccc(-c3ccc(C(=O)N4CCC(c5ccc(C(=O)O)cc5)CC4)s3)cc2)cc1 [Example 4-53]
27 | 0.19 | 194.2 to 195.5 °C | CCCC(CCC)c1ccc(OCc2ccc(-c3csc(COc4ccc(C(=O)O)cc4)c3)cc2)cc1 [Example 4-58]
28 | < 0.1 | 133.9 to 135.1 °C | CCCC(CCC)c1ccc(OCc2ccc(-c3csc(CSc4ccc(C(=O)O)cc4)c3)cc2)cc1 [Example 4-60]
29 | 0.45 | 227.3 to 233.6 °C | Cl.O=C(O)C1(c2ccccc2)CCN(Cc2ccc(-c3cn(Cc4ccc(C5CCCCC5)cc4)c4ccccc34)s2)CC1 [Example 4-62]
30 | 0.45 | 128 to 131 °C | CCN(Cc1ccc(C2CCCCC2)cc1)c1ccc(-c2ccc(CN(CC(=O)O)Cc3ccccn3)s2)cc1 [Example 4-66]
31 | 0.23 | 141 to 144 °C | CCN(Cc1ccc(C2CCCCC2)cc1)c1ccc(-c2ccc(CN(CCOc3ccccc3)CC(=O)O)s2)cc1 [Example 4-67]
32 | < 0.1 | 225 to 229 °C (dec.) | CCN(C[C@H]1CC[C@H](c2ccc(C(C)(C)C)cc2)CC1)c1ccc(-c2csc(CN3CCC(c4ccc(C(=O)O)cc4)CC3)c2)cc1 [Example 4-68]
33 | 0.11 | 242.4 to 265.9 °C | C[C@H]1CC[C@H](c2ccc(COc3ccc(-c4ccc(CN5CCN(c6ccc(C(=O)O)cc6)CC5)s4)cc3)cc2)CC1 [Example 4-74]
34 | 0.4 | 195.7 to 196.8 °C | CCCC(CCC)c1ccc(OCc2ccc(-c3ccc(CN(CC(=O)O)Cc4ccc(OC)cc4)s3)cc2)cc1 [Example 4-77]
35 | 0.38 | 202.7 to 204.3 °C | CCCC(CCC)c1ccc(OCc2ccc(-c3ccc(CN(CC(=O)O)Cc4ccc(SC)cc4)s3)cc2)cc1 [Example 4-78]
36 | < 0.1 | 234 to 241.8 °C | C[C@H]1CC[C@H](c2ccc(COc3ccc(-c4ccc(CN(CC5CCCCC5)S(=O)(=O)c5ccc(C(=O)O)cc5)s4)cc3)cc2)CC1 [Example 4-79]
37 | < 0.1 | 168 to 169.9 °C | C[C@H]1CC[C@H](c2ccc(COc3ccc(-c4ccc(CN(CC5CCCCC5)C(=O)Nc5ccc(C(=O)O)cc5)s4)cc3)cc2)CC1 [Example 4-80]
38 | 0.48 | 75.3 to 79.3 °C | CCCC(CCC)c1ccc(OCc2ccc(-c3ccc(CN(CC(=O)OCC)CC(=O)c4ccc(N5CCCC5)cc4)s3)cc2)cc1.Cl [Example 4-82]
39 | 0.27 | 121 to 128 °C | O=C(O)CCN(Cc1ccccc1)Cc1ccc(-c2ccc3c(c2)CCC3Cc2ccc(C3CCCCC3)cc2)s1 (centres unmarked) [Example 4-84]
40 | 0.12 | 127.4 to 130 °C | CCCC(CCC)c1ccc(OCc2ccc(-c3ccc(CN(CC(=O)O)Cc4nc5ccccc5o4)s3)cc2)cc1 [Example 4-96]
41 | < 0.1 | 104.4 to 107.2 °C | CCCC(CCC)c1ccc(OCc2ccc(-c3ccc(CN(CC(=O)O)c4nc5ccccc5s4)s3)cc2)cc1 [Example 4-99]
42 | < 0.1 | 151.2 to 154.4 °C | CCCC(CCC)c1ccc(OCc2ccc(-c3ccc(CN(CC(=O)O)S(=O)(=O)c4ccc(Cl)s4)s3)cc2)cc1 [Example 4-100]
43 | < 0.1 | 116 to 117.6 °C | CCCC(CCC)c1ccc(OCc2ccc(-c3ccc(CN(CC(=O)O)c4nc(-c5ccc(Cl)cc5)cs4)s3)cc2)cc1 [Example 4-107]
